Test results taken from a melting point compilation (Tetko et al.).

| Compound | melting point |
| --- | --- |
| CN(c1ccccc1)c1ccc(C(=O)O)cn1 | 176 to 178 °C |
| CCC(C)C(NC(=O)c1ccccc1)C(=O)O (stereo not drawn) | 117 to 119 °C |
| CNc1ccncn1 | 77 to 79 °C |
| Cc1[nH]nc(C(=O)O)c1S(=O)(=O)Cl | 150 to 152 °C |
| c1ccc(CCNc2nccs2)cc1 | 68 to 70 °C |
| CC(O)c1ccc(O)cc1 (stereo not drawn) | 131 to 133 °C |
| CCOC(=O)c1c(N)sc(C)c1CC | 45 to 47 °C |
| Cc1nn(C)c2c1N(C(=O)OC(C)(C)C)CC(C)N2 (stereo not drawn) | 129 to 131 °C |
| O=c1c2ccccc2c(-c2nnc(S)o2)nn1Cc1ccccc1 | 238 to 242 °C |
| O=C(NCc1ccccn1)OCC(F)(F)F | 50 to 52 °C |
| OC1CC(c2ccccc2F)C1 (stereo not drawn) | 46 to 48 °C |
| O=C(O)c1csc(Nc2ccccn2)n1 | 298 to 300 °C |
| CC(C)C(C(=O)O)c1ccc(F)cc1 (stereo not drawn) | 59 to 61 °C |
| O=c1cc(CO)nc2sccn12 | 193 to 195 °C |
| CC(NS(=O)(=O)c1cnn(C)c1)C(=O)O (stereo not drawn) | 169 to 171 °C |
| CCc1cccc2c(CCN)c[nH]c12 | 91 to 93 °C |
| CC(O)CS(C)(=O)=O (stereo not drawn) | 51 to 53 °C |
| Fc1cc(CBr)ccc1Br | 38 to 40 °C |
| CCc1cc2c(CCl)cc(=O)oc2cc1O | 216 to 218 °C |
| N#Cc1cnc2ccccn12 | 154 to 156 °C |
| COc1ccc(S(=O)(=O)N2CCCCCC2)cc1C(=O)O | 114 to 116 °C |
| COC(=O)C(=O)CC(=O)c1ccncc1 | 93 to 95 °C |
| C=CC(=O)NCC1CCCCC1 | 47 to 49 °C |
| Nc1nnc(N2CCC(C(=O)O)CC2)[nH]1 | 264 to 266 °C |
| O=C(O)COc1ccc(Oc2ccccn2)cc1 | 154 to 156 °C |
| NC(=O)c1ccc(N2CCNCC2)nc1 | 195 to 197 °C |

| Compound | melting point |
| --- | --- |
| O=C(O)CCn1nnc2ccccc2c1=O | 195 to 197 °C |
| COC(=O)c1cncnc1O | 201 to 203 °C |
| ClCc1cc(Br)ccc1Cl | 47 to 49 °C |
| O=C(O)c1ncoc1C1CCCO1 (stereo not drawn) | 125 to 127 °C |
| CC(=O)CC(=O)Nc1ccccc1C(F)(F)F | 60 to 62 °C |
| Nc1cc(C2CCCO2)no1 (stereo not drawn) | 68 to 70 °C |
| Cc1sc(=O)n(CC(=O)O)c1C | 186 to 188 °C |
| Cn1cc(S(=O)(=O)Cl)cc1C(N)=O | 132 to 134 °C |
| CS(=O)(=O)c1ccc(OCCCC(=O)O)cc1 | 150 to 152 °C |
| CC(C)(C)OC(=O)N1CC2(CNC(=O)C2)C1 | 163 to 165 °C |
| O=C(O)CCCCN1CCOCC1 | 99 to 101 °C |
| Nc1nc2c(s1)COCC2 | 144 to 146 °C |
| CCOC(=O)c1c(C)[nH]c(C(=O)CCl)c1C | 188 to 190 °C |
| N#CCc1cccc2cccnc12 | 84 to 86 °C |
| O=C(O)C(O)C1CCOCC1 (stereo not drawn) | 79 to 81 °C |
| CC(C)(C)c1ccc(C(=O)C(=O)O)cc1 | 67 to 69 °C |
| COC(=O)c1cc(S(=O)(=O)Cl)cn1C | 78 to 80 °C |
| CC(=O)c1ccc(OC(C)C(=O)O)cc1 (stereo not drawn) | 158 to 161 °C |
| COc1ccc(Cc2nnc(S)n2N)cc1OC | 177 to 179 °C |
| CNC1CCN(C2CCOCC2)CC1 | 32 to 34 °C |
| COC(C)c1ncc(C(=O)O)s1 (stereo not drawn) | 131 to 133 °C |
| COCCCOc1ccc(C(=O)O)cc1 | 112 to 114 °C |
| CC1CCC(NC(=O)OC(C)(C)C)(C(=O)O)CC1 (stereo not drawn) | 151 to 153 °C |
| Cc1ccc(-c2ccc(C(=O)O)c(F)c2)cc1C | 213 to 215 °C |
| COc1ccc(Nc2nc3cc(S(=O)(=O)N4CCOCC4)ccc3o2)cc1 | 219 to 221 °C |
| NC(=O)CC(F)(F)F | 101 to 103 °C |

| Compound | melting point |
| --- | --- |
| NC1(c2ccc(Cl)cc2)CCOCC1 | 50 to 52 °C |
| CCOc1ccc(C(=O)CC(=O)C(=O)OC)cc1 | 88 to 92 °C |
| O=C1CCC(c2ccccc2)CCN1 (stereo not drawn) | 194 to 196 °C |
| CCCCN(C)c1ccc(C(=O)O)cc1 | 134 to 136 °C |
| O=C(CCl)NCCOc1ccccc1 | 67 to 69 °C |
| COC(=O)c1cc2ccc(OCc3ccccc3)cc2[nH]1 | 136 to 138 °C |
| CC(C)CCNC(N)=S | 93 to 95 °C |
| COc1cc(C#N)ccc1OCC1CCCO1 (stereo not drawn) | 86 to 88 °C |
| Cn1c(S)nnc1Cc1cccs1 | 157 to 161 °C |
| O=C(Nc1nncs1)C1CCNCC1 | 202 to 204 °C |
| O=C(O)c1cnc(COc2ccccc2)s1 | 174 to 176 °C |
| CCCOc1ccc(C(N)=S)cc1 | 142 to 144 °C |
| O=C(O)/C=C/c1ccc2c(c1)CCO2 | 175 to 177 °C |
| Cc1sc(C(=O)O)cc1CS(C)(=O)=O | 233 to 235 °C |
| O=C1NC(=O)C2(CCSC2)N1 (stereo not drawn) | 243 to 245 °C |
| CC(=O)NCCCCCC(N)=O | 112 to 114 °C |
| CC(NC(=O)CNC(=O)CCl)c1ccc(F)cc1 (stereo not drawn) | 137 to 139 °C |
| CC(C)C1CNc2ccccc2N1 (stereo not drawn) | 73 to 75 °C |
| CCOC(=O)c1cnn(-c2ccc(C(F)(F)F)cn2)c1C | 88 to 90 °C |
| O=C(O)CNCC1CC1 | 222 to 224 °C |
| ON=C(C(=NO)c1ccccc1)c1ccccc1 | 245 to 246 °C |
| O=Cc1cn(-c2ccccc2)nn1 | 97 to 99 °C |
| CC(=O)c1cc(CCC(=O)O)oc1C | 90 to 95 °C |
| Cc1ncncc1C(=O)O | 174 to 176 °C |

Results, then the molecule that gave them:

| melting point | Compound |
| --- | --- |
| 219 to 221 °C | Cn1ccc(C(=O)O)cc1=O |
| 176 to 178 °C | O=C(O)/C=C/c1ccc(F)cc1[N+](=O)[O-] |
| 114 to 116 °C | O=Cc1c[nH]nc1-c1ccccc1F |
| 194 to 196 °C | NNc1ccc([N+](=O)[O-])cn1 |
| 59 to 61 °C | Cc1cc(C)c([N+](=O)[O-])c(Cl)n1 |
| 274 to 276 °C | Nc1[nH]ncc1-c1nc2cc(Cl)ccc2s1 |
| 159 to 161 °C | CCOc1ccc2c(c1)C(=O)NC2=O |
| 260 to 262 °C | O=c1cc(-c2ccccc2)c2cc(Cl)c(O)cc2o1 |
| 167 to 169 °C | CC1(C)NC(=O)N(Cc2ccc(C#N)cc2)C1=O |
| 132 to 134 °C | NCc1cccc(NC(=O)c2ccc(F)cc2)c1 |
| 105 to 107 °C | Cc1ccc(CC(=O)O)cc1O |
| 266 to 268 °C | Cc1ccc(-c2cncc(C(=O)O)c2)cc1 |
| 76 to 78 °C | Cc1c(Cl)cnc(Cl)c1C#N |
| 166 to 168 °C | CCc1ccc2c(c1)C(=O)C(=O)N2CC(=O)O |
| 82 to 84 °C | COCCOCC(=O)Nc1cccc(N)c1C |
| 85 to 87 °C | O=C(O)Cc1ccc(S(=O)(=O)Cl)s1 |
| 183 to 185 °C | Nc1nc2ccc(Cl)cn2n1 |
| 107 to 109 °C | CS(=O)(=O)c1ccccc1Br |
| 76 to 80 °C | CCCCN(C)S(=O)(=O)c1ccc(N)cc1 |
| 103 to 105 °C | O=C(O)C1CCCN1S(=O)(=O)c1ccc(Br)cc1 (stereo not drawn) |
| 208 to 210 °C | Cc1c(Cl)ccc(C(=O)O)c1N |
| 313 to 315 °C | O=Cc1ccc(-c2ccc(C(=O)O)cc2)o1 |
| 59 to 61 °C | CC(=O)Nc1cccc(C(C)N)c1 (stereo not drawn) |
| 264 to 266 °C | O=C1Nc2cc(Cl)ccc2C1=O |

| melting point | Compound |
| --- | --- |
| 229 to 231 °C | O=C(O)c1cccc(NC(=O)c2ccc(Br)o2)c1 |
| 151 to 153 °C | Nc1ccccc1NC(=O)c1ccc2ccccc2n1 |
| 229 to 231 °C | COc1ccc(NC(=O)COc2ccccc2C(=O)O)cc1Cl |
| 161 to 163 °C | Nc1ccc(NC(=O)NC2CC2)cc1 |
| 151 to 153 °C | CS(=O)(=O)c1ccc(-c2nc(CCl)cs2)cc1 |
| 147 to 149 °C | Cc1ccsc1-c1nnc(N)o1 |
| 187 to 189 °C | O=C(O)c1cnc(-c2ccccc2)s1 |
| 138 to 140 °C | NC(=O)c1ccccc1N1CCC(N)C1 (stereo not drawn) |
| 200 to 203 °C | COc1cc(CC#N)cc(Br)c1OC(F)F |
| 163 to 165 °C | NC(=O)c1ccc(F)cc1Br |
| 307 to 309 °C | O=C(O)c1cc(/C=C/c2cccc(Br)c2)nc2ccc(Br)cc12 |
| 149 to 151 °C | O=C(CCl)Nc1ncc(Cc2ccc(F)cc2)s1 |
| 203 to 205 °C | O=c1c2ccccc2oc2ccc([N+](=O)[O-])cc12 |
| 149 to 151 °C | N#Cc1ccc(O)c(N)c1 |
| 279 to 281 °C | O=C(O)c1ccc2c(c1)C(=O)NS2(=O)=O |
| 254 to 256 °C | Cc1c(C(=O)O)cnc2ccccc12 |
| 171 to 173 °C | CNS(=O)(=O)c1ccc(Cl)c(C(=O)O)c1 |
| 179 to 181 °C | O=C(O)c1cc2cccc(C(F)(F)F)c2[nH]1 |
| 193 to 195 °C | Cc1[nH]c2ccc(Cl)cc2c1C(=O)O |
| 166 to 168 °C | CC(C)Oc1ccc(C(N)=O)cc1 |
| 104 to 106 °C | CSc1ccc(Cl)nn1 |
| 195 to 197 °C | Clc1ncnc2[nH]ccc12 |
| 105 to 107 °C | NCc1cc(Br)c[nH]1 |
| 143 to 145 °C | N#CCC(=O)c1ccc(Br)s1 |

| melting point | Compound |
| --- | --- |
| 76 to 78 °C | Cc1ccc(C#N)cc1N |
| 106 to 108 °C | Nc1ccc(Br)c(Cl)c1[N+](=O)[O-] |
| 94 to 96 °C | CCN(CC)CC(=O)Nc1ccc(C(F)(F)F)cc1N |
| 204 to 206 °C | Nc1nncc(-c2ccccc2F)n1 |
| 183 to 185 °C | COC(=O)c1coc(-c2cccc(C#N)c2)n1 |
| 100 to 102 °C | COCc1cc(C(=O)O)ccc1F |
| 168 to 170 °C | Cc1c(F)cc(C(=O)O)cc1[N+](=O)[O-] |
| 284 to 286 °C | Cc1nnc(-c2ccc(C(=O)O)cc2)o1 |
| 158 to 160 °C | CN(C)C(=O)c1cc(N)ccc1Cl |
| 122 to 124 °C | Nc1ccn(Cc2ccncc2)n1 |
| 114 to 115 °C | Nc1cccc(C(=O)Nc2cccc(C(F)(F)F)c2)c1 |
| 100 to 102 °C | Cc1cc(C#N)c(N)s1 |
| 154 to 156 °C | Nc1cccc(Cl)c1N1CCOCC1 |
| 92 to 94 °C | O=S(=O)(Cl)c1cc2c(cc1Cl)OCCCO2 |
| 34 to 36 °C | COc1cc(C=O)cc(Cl)c1OC(C)C |
| 113 to 115 °C | Nc1cc(F)c(I)c(F)c1 |
| 118 to 120 °C | CCOC(=O)c1cc(-c2ccccc2)sc1N |
| 202 to 204 °C | CS(=O)(=O)c1cc(S(N)(=O)=O)ccc1F |
| 124 to 126 °C | CC(C)(C)NC(=O)c1cccc(N)c1 |
| 55 to 57 °C | Nc1ccc(C(=O)OC2CCCC2)cc1 |
| 118 to 120 °C | Cc1ccc(-n2nc(C)cc2N)cc1 |
| 129 to 131 °C | CN(C)C(=O)COc1ccc(N)cc1 |
| 187 to 189 °C | O=C(O)C=Cc1csc(Br)c1 |
| 167 to 169 °C | COc1cc(Cl)c(C)cc1NC(=O)CCl |
